Measurements reported in BigSolDB 2.1.

N#CCNC(=O)c1cnccc1C(F)(F)F
solubility (mole fraction)
Details	283.15 K	288.15 K	293.15 K	298.15 K	303.15 K	308.15 K	313.15 K	318.15 K	323.15 K
in 1,4-dioxane	–	0.0145	0.0175	0.0208	0.0248	0.0295	0.0348	0.041	0.0482
in THF	0.0263	0.0302	0.0343	0.0387	0.044	0.0502	0.057	0.0645	0.072
in acetone	0.0359	0.041	0.0464	0.0527	0.0595	0.0677	0.0766	0.0871	0.099
in acetonitrile	0.0173	0.0206	0.0245	0.0289	0.034	0.0404	0.0475	0.0557	0.0657
in ethanol	0.00429	0.00546	0.00686	0.00856	0.0107	0.0133	0.0163	0.0202	0.0246
in ethyl acetate	0.00961	0.0114	0.0134	0.0158	0.0182	0.0213	0.0248	0.0288	0.033
in isobutanol	0.00152	0.00202	0.00264	0.00343	0.00441	0.00561	0.0071	0.00885	0.011
in isopropanol	0.00249	0.00328	0.00424	0.00543	0.00696	0.00893	0.0114	0.0144	0.0181
in methanol	0.00943	0.0115	0.0139	0.0168	0.0202	0.0241	0.0286	0.034	0.0402
in n-butanol	0.00298	0.00376	0.00475	0.00589	0.00731	0.00906	0.0111	0.0138	0.0169
in n-butyl acetate	0.00479	0.00572	0.00684	0.00806	0.00932	0.011	0.0128	0.015	0.0173
in n-propanol	0.00267	0.00344	0.00436	0.00552	0.00691	0.00874	0.0109	0.0138	0.0174
